Results from ChEMBL document CHEMBL1148283 (J Med Chem, 2004).

Legend:
[1] = biological target: T1, Nitric oxide synthase 3 (Homo sapiens) (UniProt P29474); assay: Percentage inhibition of human endothelial nitric oxide synthase (eNOS) at 100 uM
T1 sequence (whole entry): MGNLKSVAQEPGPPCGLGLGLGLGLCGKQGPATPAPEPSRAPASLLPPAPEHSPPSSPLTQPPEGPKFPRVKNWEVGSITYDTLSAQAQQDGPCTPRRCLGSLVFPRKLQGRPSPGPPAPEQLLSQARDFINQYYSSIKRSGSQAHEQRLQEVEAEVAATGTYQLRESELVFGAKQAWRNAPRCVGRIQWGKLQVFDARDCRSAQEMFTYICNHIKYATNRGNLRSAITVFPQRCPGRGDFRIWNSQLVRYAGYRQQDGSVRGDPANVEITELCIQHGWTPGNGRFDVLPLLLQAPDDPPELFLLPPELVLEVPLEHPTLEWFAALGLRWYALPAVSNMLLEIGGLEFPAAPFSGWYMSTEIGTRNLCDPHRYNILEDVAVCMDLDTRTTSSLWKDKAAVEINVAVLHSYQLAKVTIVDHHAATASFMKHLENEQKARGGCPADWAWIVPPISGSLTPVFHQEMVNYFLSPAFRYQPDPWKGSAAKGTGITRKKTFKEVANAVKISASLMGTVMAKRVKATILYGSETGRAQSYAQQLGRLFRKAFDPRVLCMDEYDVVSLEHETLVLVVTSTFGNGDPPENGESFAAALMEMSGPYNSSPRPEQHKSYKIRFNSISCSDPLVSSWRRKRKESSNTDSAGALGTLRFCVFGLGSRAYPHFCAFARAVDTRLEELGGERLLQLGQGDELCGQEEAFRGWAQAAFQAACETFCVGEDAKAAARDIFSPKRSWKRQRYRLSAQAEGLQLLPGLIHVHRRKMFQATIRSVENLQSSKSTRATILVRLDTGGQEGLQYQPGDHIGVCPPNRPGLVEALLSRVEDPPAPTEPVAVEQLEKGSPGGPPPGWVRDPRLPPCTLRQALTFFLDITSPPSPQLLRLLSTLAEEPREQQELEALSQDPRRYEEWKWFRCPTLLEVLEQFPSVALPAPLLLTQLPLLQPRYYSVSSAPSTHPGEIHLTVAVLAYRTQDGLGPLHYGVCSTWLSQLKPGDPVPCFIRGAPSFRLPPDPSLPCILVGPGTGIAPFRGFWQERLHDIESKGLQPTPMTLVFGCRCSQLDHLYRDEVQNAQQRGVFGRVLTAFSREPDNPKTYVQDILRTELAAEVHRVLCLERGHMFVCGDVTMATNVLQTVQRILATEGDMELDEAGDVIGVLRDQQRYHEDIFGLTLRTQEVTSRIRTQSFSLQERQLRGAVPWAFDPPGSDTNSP

Nitric oxide synthase 1 [2] = biological target: T2, Nitric oxide synthase 1 (Homo sapiens, UniProt P29475)
Description: In vitro inhibition of human neuronal nitric oxide synthase.

[3] = biological target: Nitric oxide synthase, inducible (Homo sapiens, UniProt P35228)
Nitric oxide synthase 3 = biological target: T3, Nitric oxide synthase 3 (Homo sapiens, UniProt P29474); assay: In vitro inhibition of human endothelial nitric oxide synthase.
T3 sequence (P29474 whole entry): T1 sequence (whole entry)

Nitric oxide synthase 1 [4] = biological target: T2, Nitric oxide synthase 1; assay: Percentage inhibition of human neuronal nitric oxide synthase (nNOS) at 100 uM

Chain of Nitric oxide synthase, inducible (P35228 whole entry): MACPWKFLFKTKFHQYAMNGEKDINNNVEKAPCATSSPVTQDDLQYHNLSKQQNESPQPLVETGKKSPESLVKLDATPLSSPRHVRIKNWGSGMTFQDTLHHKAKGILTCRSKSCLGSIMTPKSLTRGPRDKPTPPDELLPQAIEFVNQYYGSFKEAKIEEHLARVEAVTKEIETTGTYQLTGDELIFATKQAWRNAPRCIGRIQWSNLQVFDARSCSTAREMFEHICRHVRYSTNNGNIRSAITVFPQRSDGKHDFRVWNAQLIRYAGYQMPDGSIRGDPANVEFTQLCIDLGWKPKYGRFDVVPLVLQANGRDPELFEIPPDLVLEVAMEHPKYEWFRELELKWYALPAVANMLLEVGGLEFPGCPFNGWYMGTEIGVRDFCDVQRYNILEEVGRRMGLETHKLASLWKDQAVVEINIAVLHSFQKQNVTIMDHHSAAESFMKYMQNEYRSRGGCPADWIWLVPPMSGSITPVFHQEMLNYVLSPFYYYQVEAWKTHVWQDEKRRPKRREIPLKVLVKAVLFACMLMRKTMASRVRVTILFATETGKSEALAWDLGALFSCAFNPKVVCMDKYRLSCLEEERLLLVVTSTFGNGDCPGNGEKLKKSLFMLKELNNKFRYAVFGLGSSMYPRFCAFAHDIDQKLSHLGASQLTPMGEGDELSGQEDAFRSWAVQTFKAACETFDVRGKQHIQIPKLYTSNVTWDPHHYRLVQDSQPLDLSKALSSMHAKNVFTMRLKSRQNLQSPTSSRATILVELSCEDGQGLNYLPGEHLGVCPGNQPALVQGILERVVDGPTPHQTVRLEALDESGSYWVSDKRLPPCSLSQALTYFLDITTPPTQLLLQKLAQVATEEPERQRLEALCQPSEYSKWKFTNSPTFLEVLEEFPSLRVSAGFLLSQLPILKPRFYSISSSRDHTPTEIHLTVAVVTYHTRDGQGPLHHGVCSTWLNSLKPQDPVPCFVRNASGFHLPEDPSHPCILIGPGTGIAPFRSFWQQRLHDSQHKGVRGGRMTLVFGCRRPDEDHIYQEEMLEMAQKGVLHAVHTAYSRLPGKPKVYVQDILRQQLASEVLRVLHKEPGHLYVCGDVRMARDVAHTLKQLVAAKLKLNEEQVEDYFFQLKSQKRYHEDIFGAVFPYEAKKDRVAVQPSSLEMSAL
T2 sequence (P29475 whole entry): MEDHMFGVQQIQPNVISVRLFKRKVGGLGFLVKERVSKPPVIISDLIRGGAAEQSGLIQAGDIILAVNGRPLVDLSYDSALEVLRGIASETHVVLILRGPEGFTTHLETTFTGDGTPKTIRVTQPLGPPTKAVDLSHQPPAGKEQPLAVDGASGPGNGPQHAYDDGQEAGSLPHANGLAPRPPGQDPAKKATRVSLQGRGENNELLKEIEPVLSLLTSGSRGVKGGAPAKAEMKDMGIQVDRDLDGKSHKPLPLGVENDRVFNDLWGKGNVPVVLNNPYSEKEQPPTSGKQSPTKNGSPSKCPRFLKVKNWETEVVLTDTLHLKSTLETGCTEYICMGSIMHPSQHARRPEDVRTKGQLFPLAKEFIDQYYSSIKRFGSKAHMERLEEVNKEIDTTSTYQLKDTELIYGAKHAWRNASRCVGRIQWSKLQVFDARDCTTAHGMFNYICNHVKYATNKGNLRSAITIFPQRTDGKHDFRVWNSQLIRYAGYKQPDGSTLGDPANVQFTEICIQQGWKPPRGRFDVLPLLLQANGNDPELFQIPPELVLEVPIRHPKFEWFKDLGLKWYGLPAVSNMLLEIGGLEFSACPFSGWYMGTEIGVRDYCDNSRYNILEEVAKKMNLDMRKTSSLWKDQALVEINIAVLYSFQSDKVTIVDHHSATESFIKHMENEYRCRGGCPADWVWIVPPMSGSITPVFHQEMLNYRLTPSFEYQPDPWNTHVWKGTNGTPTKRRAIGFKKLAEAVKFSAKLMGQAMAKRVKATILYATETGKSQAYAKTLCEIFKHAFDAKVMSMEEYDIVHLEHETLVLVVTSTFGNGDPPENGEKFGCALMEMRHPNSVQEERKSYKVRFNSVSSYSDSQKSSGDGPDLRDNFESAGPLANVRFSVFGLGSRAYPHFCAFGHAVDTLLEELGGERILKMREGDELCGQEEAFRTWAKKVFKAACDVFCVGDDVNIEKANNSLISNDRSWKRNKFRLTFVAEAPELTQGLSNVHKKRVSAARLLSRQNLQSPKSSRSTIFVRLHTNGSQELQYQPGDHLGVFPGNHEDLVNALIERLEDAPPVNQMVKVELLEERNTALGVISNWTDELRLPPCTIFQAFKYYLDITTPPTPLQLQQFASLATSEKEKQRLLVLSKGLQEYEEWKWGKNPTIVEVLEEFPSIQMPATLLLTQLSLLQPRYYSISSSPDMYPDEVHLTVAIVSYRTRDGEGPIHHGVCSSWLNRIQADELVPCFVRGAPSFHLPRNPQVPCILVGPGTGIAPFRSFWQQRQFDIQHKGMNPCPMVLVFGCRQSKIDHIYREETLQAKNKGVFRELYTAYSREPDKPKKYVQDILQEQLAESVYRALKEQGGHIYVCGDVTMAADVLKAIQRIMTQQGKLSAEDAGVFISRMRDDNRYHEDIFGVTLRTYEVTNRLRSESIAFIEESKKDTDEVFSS

Row | Structure (SMILES) | inhibition [1] [%] | IC50 (Nitric oxide synthase 1 [2]) [µM] | IC50 [3] [nM] | IC50 (Nitric oxide synthase 3) [µM] | inhibition (Nitric oxide synthase 1 [4]) [%]
1 | COc1ccnc(NC2CCN(C(=O)c3ccc(C#N)cc3)CC2)c1 | < 20 | – | – | – | –
2 | N#Cc1ccc(C(=O)N2CCC3(CC2)N=C(N)c2c(F)ccc(F)c2N3)cn1 | < 20 | – | – | – | –
3 | CC(=N)NCCCC[C@H](N)C(=O)O [L-NIL] | – | 1.6 | – | – | –
4 | CCOC(=O)N1CCC(Nc2ccccn2)CC1 | < 20 | > 100 | 13000 | > 100 | < 20
5 | COc1ccnc(NC2CCN(C(=O)c3ccc(Cl)cc3)CC2)c1 | – | 7.8 | 53 | 36 | –
6 | CCCC1CCCCCC(N)=N1 (stereo not given) | – | 0.24 | 26 | 4.8 | –
7 | Cc1cc(C)nc(N)c1 | – | 0.098 | 45 | 0.17 | –
8 | CCc1ccnc(N)c1 | – | 2.2 | – | – | –
9 | COc1ccnc(NC2CCN(C(=O)c3ccccc3)CC2)c1 | – | 28 | 530 | 100 | –
10 | CNc1cc(C)cc(C)n1 | – | > 100 | 86000 | 30 | < 20
11 | COc1ccnc(N)c1 | – | 1 | 1000 | 1 | –
12 | CCOC(=O)N1CCC(Nc2cc(OCC)ccn2)CC1 | < 20 | 96 | 3800 | > 100 | –
13 | CC(=N)NCCSCC[C@H](N)C(=O)O [GW-274150] | – | 18 | 70 | 34 | –
